Measurements from patent US20240391923A1, “METHIONINE ADENOSYLTRANSFERASE 2A INHIBITOR FOR TREATING MTAP DELETION-TYPE CANCER” (SUZHOU GENHOUSE BIO CO., LTD., priority 2022, published 2024).

Assays:
[1] = Metabolic stability test in hepatocytes, mouse; type: in vitro ADME; conditions: hepatocytes (suspension), Table 5: metabolic stability in hepatocytes, up to 90 min, read-out: Metabolic half-life in mouse liver microsome (T½, min)
Protocol: (§1) This experimental example was used to test the metabolic stability of the compounds in hepatocytes.
(§2) A suspension of hepatocytes was prepared at 0.5×10^6/mL with a pre-heated medium, then 198 μL of the pre-heated cell suspension was added to a 96-well plate. To each well of the 96-well plate, 2 μL of the test compound was added so that the final concentration was 1 μM, and 2 replicate wells were set. For the T=0 min sample, the compound was mixed well with the cells for 1 min, then […] was immediately added to 125 μL of a stop solution (an acetonitrile solution containing 200 ng/mL tolbutamide and 200 ng/mL labetalol) under an ice bath and mixed well. At the same time, all the plates were placed in an incubator at 37° C. with 5% CO2, with the shaker set at 600 rpm. The sample was mixed well at 15, 30, 60, and 90 min of incubation, respectively, and 25 μL of the sample was added to 125 μL of a stop solution (an acetonitrile solution containing 200 ng/mL tolbutamide and 200 ng/mL labetalol) under an ice bath, mixed well, and shaken at 500 rpm for 10 min. Subsequently, the plate was centrifuged for 20 min at 3220×g at 4° C. After the centrifugation was completed, 80 μL of the supernatant from each well was transferred to another 96-well plate containing 240 μL of ultrapure water. Subsequently, analysis was carried out using LC-MS/MS, and intrinsic clearance (CLint) and half-life (T½) were calculated.

CYP2C19 = molecular target: T1, CYP2C19 (Homo sapiens, UniProt P33261); assay: Cytochrome oxidase P450 inhibition test, CYP2C19; type: in vitro ADME; conditions: liver microsome incubation
T1 construct: from tissue; host or cells: liver microsome
T1 sequence (P33261 whole entry): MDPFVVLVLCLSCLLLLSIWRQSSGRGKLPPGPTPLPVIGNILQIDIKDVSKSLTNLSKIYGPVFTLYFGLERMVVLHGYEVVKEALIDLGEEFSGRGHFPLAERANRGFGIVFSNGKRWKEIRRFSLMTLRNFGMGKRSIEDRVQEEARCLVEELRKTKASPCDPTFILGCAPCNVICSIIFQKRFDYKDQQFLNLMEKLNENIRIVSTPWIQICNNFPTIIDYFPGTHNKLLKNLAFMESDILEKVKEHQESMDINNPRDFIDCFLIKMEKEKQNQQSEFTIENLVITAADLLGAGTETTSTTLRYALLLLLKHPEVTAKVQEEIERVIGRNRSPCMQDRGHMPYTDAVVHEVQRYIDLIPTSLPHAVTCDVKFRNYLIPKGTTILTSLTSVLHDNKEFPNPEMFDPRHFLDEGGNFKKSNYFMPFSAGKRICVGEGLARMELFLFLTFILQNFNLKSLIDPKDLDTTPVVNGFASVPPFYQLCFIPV
Protocol: (§3) 100 mM K-Buffer: 9.5 mL of stock solution A was mixed with 40.5 mL of stock solution B, the total volume was adjusted to […] with ultrapure water, and the buffer was titrated to pH 7.4 with KOH or H3PO4. • Starting material A (1 M potassium dihydrogen phosphate): 136.5 g of potassium dihydrogen phosphate in 1 L of water. • Stock B […] in 1 L of water. The test substance powder was prepared into a stock solution with a certain concentration using DMSO or other organic solvents, which was then further diluted using a proper organic solvent. The extracorporeal incubation system for CYP450 enzyme metabolism phenotype study was biochemical reaction of a prepared liver microsome, a redox coenzyme, and an enzyme-specific selective inhibitor in simulated physiological temperature and environment. The concentration of the parent drug or a metabolite thereof in the incubation solution was determined by LC-MS/MS.

[2] = Metabolic stability test in hepatocytes, rat; type: in vitro ADME; conditions: hepatocytes (suspension), Table 5: metabolic stability in hepatocytes, up to 90 min, read-out: Metabolic half-life in rat liver microsome (T½, min)
Protocol: as §1, §2

CYP1A2 = molecular target: T2, CYP1A2 (Homo sapiens, UniProt P05177); assay: Cytochrome oxidase P450 inhibition test, CYP1A2; type: in vitro ADME; conditions: liver microsome incubation
T2 construct: from tissue; host or cells: liver microsome
T2 sequence (P05177 1-516): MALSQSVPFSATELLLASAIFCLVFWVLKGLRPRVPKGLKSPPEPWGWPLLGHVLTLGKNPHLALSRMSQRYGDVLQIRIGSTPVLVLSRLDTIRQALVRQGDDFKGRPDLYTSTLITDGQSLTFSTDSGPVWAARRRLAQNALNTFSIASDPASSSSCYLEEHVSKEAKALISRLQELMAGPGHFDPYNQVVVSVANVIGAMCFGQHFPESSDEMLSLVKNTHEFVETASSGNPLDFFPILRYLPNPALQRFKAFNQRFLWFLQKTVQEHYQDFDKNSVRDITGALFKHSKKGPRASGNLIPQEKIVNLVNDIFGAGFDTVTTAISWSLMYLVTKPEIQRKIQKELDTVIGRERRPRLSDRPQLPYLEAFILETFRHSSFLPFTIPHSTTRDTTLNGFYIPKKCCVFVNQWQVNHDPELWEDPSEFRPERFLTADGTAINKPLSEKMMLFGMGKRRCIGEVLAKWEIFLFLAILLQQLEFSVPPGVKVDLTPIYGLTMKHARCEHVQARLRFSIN
Protocol: as §3

CYP2D6 = molecular target: T3, CYP2D6 (Homo sapiens, UniProt P10635); assay: Cytochrome oxidase P450 inhibition test, CYP2D6; type: in vitro ADME; conditions: liver microsome incubation
T3 construct: from tissue; host or cells: liver microsome
T3 sequence (P10635 whole entry): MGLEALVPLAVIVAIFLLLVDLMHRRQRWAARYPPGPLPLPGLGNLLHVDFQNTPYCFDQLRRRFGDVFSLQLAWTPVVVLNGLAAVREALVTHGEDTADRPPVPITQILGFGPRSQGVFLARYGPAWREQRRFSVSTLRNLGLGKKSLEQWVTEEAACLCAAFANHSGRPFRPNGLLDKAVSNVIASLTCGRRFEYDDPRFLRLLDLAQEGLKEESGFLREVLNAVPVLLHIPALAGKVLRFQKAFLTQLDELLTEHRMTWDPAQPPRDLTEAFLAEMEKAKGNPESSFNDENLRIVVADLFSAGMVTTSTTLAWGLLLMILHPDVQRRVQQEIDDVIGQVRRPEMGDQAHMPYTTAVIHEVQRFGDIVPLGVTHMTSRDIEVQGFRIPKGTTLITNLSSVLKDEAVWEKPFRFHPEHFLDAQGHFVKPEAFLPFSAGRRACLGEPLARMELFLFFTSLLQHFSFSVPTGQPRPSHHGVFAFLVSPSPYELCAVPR
Protocol: as §3

[3] = Stability test in liver microsomes, human; type: in vitro ADME, humans; conditions: human liver microsomes 0.5 mg/mL, 1.0 μM substrate, up to 60 min; read-out: Metabolic half-life in human liver microsome ( T1/2, min)
[4] = Stability test in liver microsomes, mouse; type: in vitro ADME, CD-1 mice; conditions: CD-1; mouse liver microsomes 0.5 mg/mL, 1.0 μM substrate, up to 60 min; read-out: Metabolic half-life in mouse liver microsome (T½, min)
[5] = test system: Human colorectal adenocarcinoma cells HCT116-MTAP-KO; assay: Mouse xenograft tumor pharmacodynamic model, HCT116-MTAP-KO; type: in vivo
Protocol: In this example, the in vivo efficacy of the compound in a mouse xenograft tumor model after intragastric (PO) administration was tested.
Human colorectal adenocarcinoma cells HCT116-MTAP-KO were cultured in monolayer in vitro under the condition of McCoy's 5A medium containing 10% fetal bovine serum and 1% penicillin and streptomycin, and the culture was carried out at 37° C. with 5% CO2. The cells were digested with trypsin three times a week for passaging. When the saturation degree of the cells was 80-90%, the cells were collected, counted and inoculated. 0.1 mL (5×10^6 cells) of HCT116-MTAP-KO cells were subcutaneously inoculated on the right back of each mouse. On day 16 after inoculation of the cells, the mean tumor volume reached 154 mm^3. The mice were randomly grouped for administration and intragastrically dosed once daily. Changes in body weight and tumor volume were recorded. After a certain number of days of administration, the experiment was ended. Tumor volume changes and mouse body weight changes were counted and analyzed. AG270 (CAS: 2201056-66-6) was the positive control compound.

| Compound | half-life at 1 μM [1] | IC50 (CYP2C19) | half-life at 1 μM [2] | IC50 (CYP1A2) | IC50 (CYP2D6) | half-life at 1 μM [3] | half-life at 1 μM [4] | other results |
| --- | --- | --- | --- | --- | --- | --- | --- | --- |
| Cn1cc2c(n1)c(=O)n(-c1cccnc1)c1cc(Cl)ccc21 [Compound B12] | 68.8 min | > 10 µM |  | > 10 µM | > 10 µM | > 145 min | > 145 min |  |
| Cn1cc2c(n1)c(=O)n(-c1cccc3[nH]ncc13)c1cc(Cl)c(F)cc21 [Compound B257] |  |  |  |  |  |  |  | Tumor growth inhibition percentage (TGI) ([5]; PO 1 mg/kg once a day, 15 days of administration): once a day TGI = 77.29%; Tumor growth inhibition percentage (TGI) ([5]; PO 1 mg/kg once a day, 28 days of administration): once a day TGI = 51.34%; Tumor growth inhibition percentage (TGI) ([5]; PO 3 mg/kg once a day, 28 days of administration): once a day TGI = 87.78% |
| Cn1cc2c(n1)c(=O)n(-c1cccc3[nH]ncc13)c1cc(Cl)c(C#N)cc21 [Compound B258] |  |  |  |  |  |  |  | Tumor growth inhibition percentage (TGI) ([5]; PO 3 mg/kg once a day, 15 days of administration): once a day TGI = 52.48%; Tumor growth inhibition percentage (TGI) ([5]; PO 10 mg/kg once a day, 15 days of administration): once a day TGI = 72.58%; Tumor growth inhibition percentage (TGI) ([5]; PO 30 mg/kg once a day, 15 days of administration): once a day TGI = 81.2%; Tumor growth inhibition percentage (TGI) ([5]; PO 100 mg/kg once a day, 15 days of administration): once a day TGI = 83.75% |
| Cn1cc2c(n1)c(=O)n(-c1cccnc1C1CC1)c1cc(Cl)c(F)cc21 [Compound B340] | 124 min |  | 150 min |  |  |  |  | Tumor growth inhibition percentage (TGI) ([5]; PO 3 mg/kg once a day, 22 days of administration): once a day TGI = 48.04%; Tumor growth inhibition percentage (TGI) ([5]; PO 10 mg/kg once a day, 22 days of administration): once a day TGI = 61.99%; Tumor growth inhibition percentage (TGI) ([5]; PO 30 mg/kg once a day, 22 days of administration): once a day TGI = 72.55% |

Continued, in another order:

| half-life at 1 μM [1] | IC50 (CYP2C19) | half-life at 1 μM [2] | IC50 (CYP1A2) | IC50 (CYP2D6) | half-life at 1 μM [3] | half-life at 1 μM [4] | Compound | other results |
| --- | --- | --- | --- | --- | --- | --- | --- | --- |
| 47.1 min | > 10 µM | 51.1 min | > 10 µM | > 10 µM |  |  | Cc1ncccc1-n1c(=O)c2nn(C)cc2c2ccc(C(F)(F)F)nc21 (single isomer, unassigned) [Compound B180] |  |
|  | > 10 µM |  | > 10 µM | > 10 µM | 722 min | > 145 min | Cn1cc2c(n1)c(=O)n(-c1cccc3[nH]ncc13)c1cc(Cl)ccc21 [Compound B60] |  |
| 14.9 min |  | 50.9 min |  |  | > 145 min | 120 min | Cn1cc2c(n1)c(=O)n(-c1cccc(O)c1)c1nc(C(F)(F)F)ccc21 [Compound B148] |  |
| 91.1 min | > 30 µM |  | > 30 µM | > 30 µM | > 145 min | > 145 min | Cn1cc2c(n1)c(=O)n(-c1cccc3[nH]ncc13)c1nc(C(F)(F)F)ccc21 [Compound B181] |  |
|  |  |  |  |  | 258 min | 136 min | Cn1cc2c(n1)c(=O)n(-c1ccccc1Cl)c1nc(C(F)(F)F)ccc21 [Compound B182] |  |
